GI50 and TGI data for 6 compounds are collected here from PubChem BioAssay (NCI).

Where “and” joins values, the source holds several entries; their conditions need not be identical. Equal values may be shown once.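 How tested: cells in 96-well plates exposed to compound for 48 hours at five concentrations. GI50 = concentration required for 50% inhibition of growth. At the TGI there is no net growth.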 A value given as a limit tells only on which side of the number the result lay.

Among the test systems are LOX IMVI melanoma; OVCAR-3 ovarian; SNB-75 CNS; NCI-H460 lung; SNB-19 CNS; OVCAR-5 ovarian; NCI-H226 lung; RPMI-8226 leukemia; TK-10 renal; HOP-62 NSCLC.
Assay in all cases: NCI tumour cell line growth inhibition, 48 h

On to `COCCOCCOCc1n(Cc2ccc3ccccc3c2)c2ccccc2[n+]1Cc1ccc2ccccc2c1`, for which the GI50 in the assay with LOX IMVI melanoma is 0.419 µM; in the assay on OVCAR-3 ovarian, 0.322 µM; in the assay on SNB-75 CNS, 0.236 µM; in the assay with NCI-H460 lung, 0.483 µM; with SNB-19 CNS, 0.377 µM; in the assay with OVCAR-5 ovarian, 0.927 µM. For the same compound, the GI50 is 0.957 µM with NCI-H226 lung, 0.117 µM in the assay on RPMI-8226 leukemia, 0.772 µM in the assay on TK-10 renal and 1.17 µM with HOP-62 NSCLC. For the same compound, the TGI with LOX IMVI melanoma worked out at 1.67 µM; in the assay on OVCAR-3 ovarian it was 1.48 µM; in the assay on SNB-75 CNS it was 1.31 µM; in the assay on NCI-H460 lung, 1.85 µM; in the assay on SNB-19 CNS, 1.59 µM; in the assay on OVCAR-5 ovarian, 2.26 µM. Besides, the TGI in the assay on NCI-H226 lung came out at 2.53 µM; in the assay with RPMI-8226 leukemia, 1.15 µM; in the assay on TK-10 renal it was 2.15 µM; in the assay with HOP-62 NSCLC, 2.59 µM.

Take `CCOC(=O)C(Cc1c[nH]c2cc(N(CCO)CCO)ccc12)(NC(C)=O)C(=O)OCC`: the GI50 in the assay on LOX IMVI melanoma was 217 µM; in the assay with OVCAR-3 ovarian, 186 µM; in the assay with NCI-H460 lung it was 433 µM; in the assay on SNB-19 CNS, greater than 1000 µM; with OVCAR-5 ovarian, greater than 1000 µM; with NCI-H226 lung, greater than 1000 µM. For the same compound, the GI50 was 65.3 µM in the assay on RPMI-8226 leukemia, greater than 1000 µM in the assay on TK-10 renal and greater than 1000 µM in the assay with HOP-62 NSCLC. Also, the TGI in the assay with LOX IMVI melanoma was greater than 1000 µM; in the assay on OVCAR-3 ovarian, 726 µM; in the assay with SNB-75 CNS it was greater than 1000 µM; in the assay on NCI-H460 lung, greater than 1000 µM; with SNB-19 CNS, greater than 1000 µM; in the assay on OVCAR-5 ovarian it was greater than 1000 µM. The TGI in the assay on NCI-H226 lung, with TK-10 renal and in the assay with HOP-62 NSCLC was greater than 1000 µM in each case.

With `O=C(O)[C@@H]1OCCOCCO[C@@H](C(=O)O)[C@H](C(=O)O)OCCOCCO[C@H]1C(=O)O`, the TGI in the assay with LOX IMVI melanoma, with OVCAR-3 ovarian, with SNB-75 CNS, with NCI-H460 lung, in the assay on SNB-19 CNS and in the assay with OVCAR-5 ovarian was greater than 100 µM each time. Moreover, the TGI is greater than 100 µM in the assay with NCI-H226 lung, greater than 60.9 µM in the assay on RPMI-8226 leukemia, greater than 100 µM in the assay with TK-10 renal and greater than 100 µM in the assay on HOP-62 NSCLC.

For the compound `CCOC(=O)Nc1nc2ccccc2[nH]1`, the GI50 in the assay on LOX IMVI melanoma is 7.1 µM and 6.82 µM; in the assay on OVCAR-3 ovarian, 4.09 µM and 2.19 µM; in the assay with SNB-75 CNS, 3.01 µM and 2.61 µM; with NCI-H460 lung, 4.27 µM and 3.6 µM; with SNB-19 CNS, 10.5 µM and 4.83 µM; in the assay on OVCAR-5 ovarian, 15.8 µM and > 26.1 µM. The GI50 was 4.13 µM and 2.26 µM in the assay on RPMI-8226 leukemia; 11.3 µM and > 27 µM in the assay on TK-10 renal; 6.08 µM and > 22.9 µM with HOP-62 NSCLC. The TGI is greater than 100 µM in the assay with LOX IMVI melanoma; 20.4 µM and 5.61 µM in the assay with OVCAR-3 ovarian; greater than 100 µM in the assay on SNB-75 CNS; greater than 100 µM in the assay with NCI-H460 lung; greater than 100 µM with SNB-19 CNS; greater than 100 µM in the assay on OVCAR-5 ovarian. For the same compound, the TGI with NCI-H226 lung, in the assay on RPMI-8226 leukemia, with TK-10 renal and in the assay with HOP-62 NSCLC was greater than 100 µM throughout.

With `CNCC/C=C1\c2cc3c(cc2-c2c1c1cc(OC)c(OC)cc1c(=O)n2C)OCO3`, the GI50 was 0.51 µM in the assay on LOX IMVI melanoma; 1.04 µM in the assay on OVCAR-3 ovarian; 3.26 µM with SNB-75 CNS; 0.196 µM with NCI-H460 lung; 1.08 µM in the assay with SNB-19 CNS; 4.51 µM in the assay with OVCAR-5 ovarian. Further, the GI50 in the assay on NCI-H226 lung is 0.232 µM; in the assay on RPMI-8226 leukemia it was 0.149 µM; with TK-10 renal it was 0.941 µM; in the assay on HOP-62 NSCLC it was 0.596 µM. The TGI was found to be 2.57 µM in the assay with LOX IMVI melanoma; 17.9 µM in the assay on OVCAR-3 ovarian; 33.8 µM in the assay with SNB-75 CNS; 5.97 µM in the assay on NCI-H460 lung; 23.1 µM with SNB-19 CNS; 27.4 µM in the assay with OVCAR-5 ovarian. Also, the figures for the TGI with NCI-H226 lung, with TK-10 renal and in the assay on HOP-62 NSCLC were 2.11 µM, 8.56 µM and 21.9 µM, respectively.

`N#Cc1ccc(/C=C(/C(=O)c2ccccc2)c2ccccc2)cc1`: the TGI with LOX IMVI melanoma was 10.6 µM; with OVCAR-3 ovarian, 48.4 µM; in the assay with SNB-75 CNS, greater than 57.2 µM; in the assay with NCI-H460 lung, 47.5 µM; with SNB-19 CNS, 50.1 µM; in the assay with OVCAR-5 ovarian, 35.4 µM. The TGI with NCI-H226 lung stood at 31.5 µM; in the assay on RPMI-8226 leukemia it was 8.82 µM; with TK-10 renal, 57 µM; with HOP-62 NSCLC, 40.2 µM.
